# Values of other authors, collected in US20260256672A1, “COMPOSITION COMPRISING SKIN CARE ACTIVE INGREDIENT OR CELLULOSE COMPOUND” (L'OREAL, priority 2022, published 2026).
# Details: base-ten logarithm of apparent octan-1-ol/water partition coefficient
row,Log P,Structure (SMILES)
1,−1.6,NC[C@H]1CC[C@H](C(=O)O)CC1 [Tranexamic Acid]
2,−3.4,O=C1O[C@H]([C@@H](O)CO)C(O)=C1O[C@H]1O[C@H](CO)[C@@H](O)[C@H](O)[C@H]1O [Ascorbyl Glucoside]
3,−1.5,"CC(O)C[C@H]1OC[C@@H](O)[C@H](O)[C@H]1O (stereo partly drawn) [Hydroxypropyl Tetrahydropyrantriol, C-beta-D-xylopyranoside-2-hydroxpropane]"

row,Structure (SMILES),Log P
1,NC(=O)c1cccnc1 [Niacinamide],−0.37
